{
  "source": "patent US20040034107A1",
  "about": "“Ubiquinone Qn for the treatment of pain” (MSE Pharmazeutika GmbH, priority 1999, published 2004)",
  "key": {"[1]": {"assay": "local treatment of herpes zoster pain", "format": "in vivo", "conditions": "local application in the form of creams or gels", "source_text": "In the case of herpes zoster, even the local application of Q-10 in the form of creams or gels has even proven useful. It is critical that sufficient amounts of the ubiquinones or ubiquinone precursors arrive at the place in which the pain caused by disturbances of the signal transmission of the nerve system has its origin."}, "[2]": {"assay": "treatment of migraine pain with Q-10", "format": "in vivo", "method": "The substances to be used according to the invention can be preferably employed for the treatment of pain which is caused by migraine, dialysis, herpes zoster, cancer, diabetic neuropathy, or generalized pain conditions. The treatment can be done by administration in oral, parenteral, local, inhalative or intranasal form. The kind of administration must be adapted to the pain condition to be treated. […] Good results were achieved already with doses of about 20 mg.\nDue to the low dose which is already effective for treating migraine pain, the ubiquinone Qn or its precursors are preferably used in the form of a spray, preferably a nasal spray, according to the invention."}},
  "data": [
    {"smiles": "COC1=C(OC)C(=O)C(C/C=C(\\C)CC/C=C(\\C)CC/C=C(\\C)CC/C=C(\\C)CC/C=C(\\C)CC/C=C(\\C)CC/C=C(\\C)CC/C=C(\\C)CC/C=C(\\C)CCC=C(C)C)=C(C)C1=O", "note": "[Q-10, 2,3-dimethoxy-5-methyl-6-decaprenyl-1,4-benzoquinone]", "values": [
      {"measurement": "treatment of herpes zoster pain", "setting": "[1]", "result": "proven useful"},
      {"measurement": "treatment of migraine", "setting": "[2]; oral administration, high doses", "result": "only with very limited success"},
      {"measurement": "elimination of migraine pain", "setting": "[2]; oral and nasal sprays, small amounts", "result": "fast and effective elimination of migraine pain"},
      {"measurement": "results in migraine pain", "setting": "[2]; sprays, doses of about 20 mg", "result": "Good results"}
    ]}
  ]
}
